Experimental findings from ChEMBL document CHEMBL1201862, “PubChem BioAssay data set” (2004) are described below.

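Method: 48-hour compound exposure of cells in 96-well plates, five concentrations, linear interpolation of endpoints. At the GI50, growth is halved.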 Active and inactive are the calls of the source. No stated cut-off is given here; in the data, active = GI50 up to about 1.1 µM and inactive = higher. Where only a bound is given, the exact number is not on record here.

What all share (assay): DTP human tumour cell line panel, 48 h
For assay [1], the system named is MDA-N.
Assay [2] deals with MDA-MB-231.
The test system of assay [3] is COLO 205.
Assay [4] has as its system SK-MEL-2.
Assay [5] deals with EKVX.
Assay [6] concerns SR.
Assay [7] deals with K562.
Assay [8] has as its system DU-145.
For assay [9], the system named is SNB-75.
Assay [10] deals with HCC 2998.
For assay [11], the system named is NCI/ADR-RES.
Assay [12] concerns IGROV-1.
Assay [13] deals with HCT-116.
Assay [14] has as its system NCI-H460.
The subject of assay [15] is HOP-92.
Assay [16] relates to HL-60.
The test system of assay [17] is TK-10.
Assay [18] deals with PC-3.
Assay [19] deals with Hs-578T.

Take `O=[N+]([O-])C1=Cc2c(O)ccc(O)c2C2OC=CC12` (stereo not given): the GI50 in assay [1] is 5.97 µM (inactive); in assay [2], 18.5 µM (inactive); in assay [3] it was 27 µM (inactive); in [4], 18.7 µM (inactive); in assay [5] it was 19.5 µM (inactive); in assay [6], 23 µM (inactive). The GI50 in assay [7] was 9.44 µM (inactive); in assay [8], 26.4 µM (inactive); in [9] it was 21.6 µM (inactive); in assay [10] it was 27.4 µM (inactive); in assay [11], 19.2 µM (inactive); in assay [12] it was 19.4 µM (inactive). In addition, the GI50 in assay [13] was 15.9 µM (inactive); in assay [14] it was 19.7 µM (inactive); in [15], 22.3 µM (inactive); in assay [16], 8.59 µM (inactive); in [17], 16.6 µM (inactive); in [18], 14.7 µM (inactive). Moreover, the GI50 in assay [19] is 29.2 µM (inactive).

Regarding `CSc1ccc(/C=C2\N=C(c3ccccc3)N(c3nc4c(Cl)cc(Cl)cc4s3)C2=O)cc1`, the GI50 in assay [1] was 17 µM (inactive); in [2] it was 18.9 µM (inactive); in [3] it was 33.4 µM (inactive); in assay [4], 20.2 µM (inactive); in assay [5], 13.6 µM (inactive); in [6], 20.9 µM (inactive). Further, the GI50 in [7] is 26.7 µM (inactive); in assay [8] it was 46 µM (inactive); in [9] it was 36.6 µM (inactive); in assay [10] it was 29 µM (inactive); in [11] it was 25.2 µM (inactive); in [12] it was 35.3 µM (inactive). The GI50 in [13] is 19.1 µM (inactive); in assay [14], 25.6 µM (inactive); in [15], 32.8 µM (inactive); in [16] it was 21.6 µM (inactive); in assay [17], 39.2 µM (inactive); in [18] it was 20.4 µM (inactive). Moreover, in assay [19], the GI50 was 21.9 µM (inactive).

Consider `CN(O)C(=O)/C=C/c1ccc(OCc2cccc(Cl)c2)cc1`, for which the GI50 is 43.1 µM (inactive) in assay [1]; 43.9 µM (inactive) in assay [2]; 28.9 µM (inactive) in assay [3]; 23.8 µM (inactive) in [4]; 26.5 µM (inactive) in assay [5]; 7.06 µM (inactive) in assay [6]. In addition, the GI50 in [7] was 36.1 µM (inactive); in assay [8], 20.8 µM (inactive); in assay [9], 26.4 µM (inactive); in assay [10], 23.6 µM (inactive); in [11], 19.7 µM (inactive); in [12] it was 17.3 µM (inactive). Also, the GI50 in assay [13] is 16.8 µM (inactive); in [14], 16.5 µM (inactive); in [15], 24.3 µM (inactive); in assay [16], 18 µM (inactive); in assay [17], 48.6 µM (inactive); in [18], 24.5 µM (inactive). In addition, in assay [19], the GI50 was 61.7 µM (inactive).

Regarding `c1ncc(C23C4C5C6C4C2C6C53)[nH]1` (stereo not given), the GI50 in [1], in [2], in assay [3], in assay [4], in assay [5] and in [6] was > 100 µM (inactive) throughout. In addition, the GI50 in assay [7], in assay [8], in [9], in [10], in assay [11] and in assay [12] was > 100 µM (inactive) throughout. In addition, the GI50 in assay [13], in assay [14], in assay [15], in [16], in [17] and in assay [18] was > 100 µM (inactive) in each case. In assay [19], the GI50 is > 100 µM (inactive).

On to `Cn1cc(S(=O)(=O)NC(=O)Nc2ccc(Cl)cc2)c(=O)c2ccc(F)cc21`, for which the GI50 in assay [1] was 64.3 µM (inactive); in [2] it was > 100 µM (inactive); in assay [3], > 100 µM (inactive); in assay [4] it was > 100 µM (inactive); in [5], > 100 µM (inactive); in assay [6] it was > 100 µM (inactive). Also, the GI50 in assay [7], in assay [8], in assay [9], in assay [10], in assay [11] and in assay [12] was > 100 µM (inactive) in each case. Besides, the GI50 in assay [13], in assay [14], in [15], in [16], in assay [17] and in [18] was > 100 µM (inactive) each time. Also, the GI50 in assay [19] was > 100 µM (inactive).

Take `CC(C)(C)OC(=O)C(C1NC(C(=O)O)C(C)(C)S1)N1C(=O)c2ccccc2C1=O` (stereo not given): the GI50 in assay [1], in assay [2], in [3], in assay [4], in [5] and in assay [6] was > 100 µM (inactive) in each case. The GI50 in assay [7], in assay [8], in [9], in assay [10], in assay [11] and in assay [12] was > 100 µM (inactive) in each case. Moreover, the GI50 in assay [13], in assay [14], in assay [15], in assay [16], in [17] and in assay [18] was > 100 µM (inactive) in each case. In addition, the GI50 in assay [19] is > 100 µM (inactive).

Consider `CC(NNC(=O)c1cc[n+]([BH2-]C#N)cc1)c1ccc(Cl)c(Cl)c1` (stereo not given), for which the GI50 in [1] was 35.2 µM (inactive); in assay [2], 24.8 µM (inactive); in [3] it was 18.9 µM (inactive); in assay [4] it was 32.2 µM (inactive); in [5], 30.1 µM (inactive); in assay [6] it was 36 µM (inactive). Also, the GI50 is 34.9 µM (inactive) in assay [7]; 37.8 µM (inactive) in assay [8]; 34.8 µM (inactive) in [9]; 42.6 µM (inactive) in [10]; 30.5 µM (inactive) in assay [11]; 38.5 µM (inactive) in assay [12]. In addition, the GI50 in assay [13] is 32.1 µM (inactive); in [14] it was 27.2 µM (inactive); in [15], 20.6 µM (inactive); in assay [16], 25.8 µM (inactive); in [17] it was 28.6 µM (inactive); in [18], 22.9 µM (inactive). Also, in [19], the GI50 was 28.4 µM (inactive).

Take `COC1=CC(=O)C(C2CC(=O)c3c(O)cc(O)cc3O2)=CC1=O` (stereo not given): the GI50 in assay [1] is 15.6 µM (inactive); in assay [2], 12.2 µM (inactive); in [3] it was 17.9 µM (inactive); in assay [4] it was 17.4 µM (inactive); in [5] it was 16.6 µM (inactive); in assay [6], 5.74 µM (inactive). In addition, the GI50 in [7] was 5.86 µM (inactive); in assay [8], 19 µM (inactive); in [9], 23.6 µM (inactive); in assay [10], 16.8 µM (inactive); in assay [11], 21.7 µM (inactive); in assay [12], 19.1 µM (inactive). In addition, the GI50 in [13] was 16.1 µM (inactive); in assay [14], 23 µM (inactive); in [15], 7.55 µM (inactive); in assay [16] it was 2 µM (inactive); in assay [17], 16.9 µM (inactive); in [18], 16.5 µM (inactive). Also, the GI50 in assay [19] was 33.5 µM (inactive).

With `CC[C@@]1(O)C(=O)OCc2c1cc1n(c2=O)Cc2c-1nc1ccc(O)cc1c2CC[Si](C)(C)C`, the GI50 is 0.0133 µM (active) in assay [1]; 0.187 µM (active) in [2]; 0.149 µM (active) in [3]; 0.1 µM (active) in [4]; 0.041 µM (active) in [5]; < 0.001 µM (active) in [6]. Further, the GI50 was 0.00839 µM (active) in assay [7]; < 0.001 µM (active) in assay [8]; < 0.001 µM (active) in assay [9]; 0.0174 µM (active) in assay [10]; 0.0489 µM (active) in [11]; 0.0248 µM (active) in assay [12]. Besides, the GI50 in assay [13] was < 0.001 µM (active); in assay [14] it was < 0.001 µM (active); in assay [15] it was 0.0682 µM (active); in assay [16], < 0.001 µM (active); in assay [17] it was 0.0385 µM (active); in assay [18] it was 0.141 µM (active). For the same compound, the GI50 in assay [19] is 0.681 µM (active).

`Cc1cc2c(c(/C=N/c3ccccc3O)c1)OC1(C=C2)Oc2ccccc2C(=O)N1C` (stereo not given): the GI50 was 28.2 µM (inactive) in [1]; 16.3 µM (inactive) in assay [2]; 22.9 µM (inactive) in assay [3]; 19.5 µM (inactive) in [4]; 14 µM (inactive) in assay [5]; 15.8 µM (inactive) in [6]. Also, the GI50 is 12.3 µM (inactive) in assay [7]; 14.9 µM (inactive) in [8]; 18.6 µM (inactive) in [9]; 15.8 µM (inactive) in assay [10]; 17.3 µM (inactive) in [11]; 21.5 µM (inactive) in assay [12]. Moreover, the GI50 is 14.3 µM (inactive) in assay [13]; 16.7 µM (inactive) in assay [14]; 11.8 µM (inactive) in [15]; 27 µM (inactive) in [16]; 16.8 µM (inactive) in assay [17]; 17.4 µM (inactive) in assay [18]. In addition, in assay [19], the GI50 was 11.6 µM (inactive).
